Laboratory results from paper PMC6272715, “Discovery of Novel Small Molecule Anti-HCV Agents via the CypA Inhibitory Mechanism Using O-Acylation-Directed Lead Optimization” (Molecules, 2015).
Like-named read-outs stand apart in the source and are kept apart here.

Experiments:
HCV JFH1-2a replicon = assay: HCV JFH1-2a subgenomic replicon assay (Renilla luciferase, Huh 7.5.1 replicon cells); format: cell-based; details: Hepatitis C virus
[1] = test system: JFH1-2a virus (wild type); assay: HCV virus assay, JFH1-2a wild type, Huh 7.5.1 cells; details: Hepatitis C virus, Huh-7.5.1, read-out: Anti-HCV Activity EC50 ± SD Virus Assay JFH1-2a
HCV Con1-1b replicon = assay: HCV Con1-1b subgenomic replicon assay; format: cell-based; details: Hepatitis C virus; Table 4; read-out: Anti-HCV Activity EC50 ± SD Replicon Assay Con1-1b
CypA = CypA (Homo sapiens, UniProt P62937); assay: CypA enzyme inhibition assay (chymotrypsin-coupled PPIase assay); format: biochemical; details: mean ± SD of five independent experiments
Method: The PPIase activity of CypA was conducted in a coupled assay with chymotrypsin using the synthetic tetrapeptide N-succinyl-Ala-Ala-Pro-Phe-p-nitroanilide (Sigma, Shanghai, China) as described in [34] with small modifications. The assay buffer (20 mM Tris-HCl, 50 mM NaCl, pH 7.8) and CypA were precooled at 4 °C and mixed with 0.4 mg∙mL^−1 chymotrypsin (20 mg∙mL^−1 in 1 mM HCl). The reaction was initiated by adding peptide substrate (2 mg∙mL^−1 in 500 mM LiCl in tetrahydrofuran (THF)). […] Absorbance readings were collected every 0.1 s and the temperature was controlled at 4 °C during the assay. The progress curves were analyzed by nonlinear least-squares fit. The inhibition assays of compounds were performed in the same manner as above-mentioned. […] of test compounds in DMSO, at various concentrations, was added to the CypA solution in the assay buffer. After being preincubated for 1 h at 4 °C, the assay was started by the addition of chymotrypsin and the substrate. To calculate the half-maximal inhibitory concentration (IC50), a percent of the remaining PPIase activity was plotted against the common logarithm of the compound concentration, and the data were fitted using the sigmoidal fitting model of Origin 7.0 software.

HCV H77-1a replicon = assay: HCV H77-1a subgenomic replicon assay; format: cell-based; details: Hepatitis C virus; Table 4; read-out: Anti-HCV Activity EC50 ± SD Replicon Assay H77-1a
[2] = Cell proliferation (cytotoxicity) assay, WST-1; format: cell-based; details: human, Huh 7.5.1 cells, Table 4, 48 h
Method: Cell Proliferation Assay: Huh 7.5.1 cells were seeded at a density of 2 × 10^4 cells per well in 96-well plates overnight. The cells were respectively incubated with serial diluted compounds for 48 h, and the viability of Huh7.5.1 cells was determined in 96-well tissue culture plates using cell proliferation reagent WST-1 (Roche, Basel, Switzerland). The absorbance (OD450 /reference OD630) was measured to detect the cytotoxicity of compounds, according to the manufacturer’s protocol of Cell Proliferation Reagent WST-1.

[3] = Table 1, mean ± SD of three independent experiments, read-out: Anti-HCV JFH1-2a Replicon Assay EC50 ± SD
[4] = Table 4, read-out: Anti-HCV Activity EC50 ± SD Replicon Assay JFH1-2a

Sequence of CypA (P62937 whole entry): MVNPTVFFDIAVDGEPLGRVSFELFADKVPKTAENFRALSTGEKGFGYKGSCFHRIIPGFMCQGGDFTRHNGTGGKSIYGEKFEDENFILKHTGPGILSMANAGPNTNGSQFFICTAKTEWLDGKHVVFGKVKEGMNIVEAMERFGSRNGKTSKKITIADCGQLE

Structure (SMILES)	EC50 (HCV JFH1-2a replicon; [3])	EC50 [1]	EC50 (HCV Con1-1b replicon)	EC50 (HCV JFH1-2a replicon; [4])	IC50 (CypA)	EC50 (HCV H77-1a replicon)	CC50 at 48 h [2]	melting point
O=C(NC(=O)c1c(O)cccc1O)Nc1cccc2ccccc12 [Compound 2]	> 10000 nM							
O=C(NCc1ccccc1)NC(=O)c1c(O)cccc1O [Compound 3]	> 50000 nM							
O=C(NC(=O)c1c(O)cccc1O)NC1CCCCC1 [Compound 4]	> 50000 nM							
O=C(NC(=O)c1ccccc1Cl)NC1c2ccccc2-c2ccccc21 [Compound 5]	> 50000 nM							
O=C(NC(=O)c1ccccc1[N+](=O)[O-])NC1c2ccccc2-c2ccccc21 [Compound 6]	> 50000 nM							
N#Cc1ccccc1C(=O)NC(=O)NC1c2ccccc2-c2ccccc21 [Compound 7]	> 50000 nM							
O=C(NC(=O)c1ccccc1F)NC1c2ccccc2-c2ccccc21 [Compound 8]	1650 ± 320 nM							
O=C(NC(=O)c1ccccc1C(F)(F)F)NC1c2ccccc2-c2ccccc21 [Compound 9]	> 10000 nM							
CSc1ccccc1C(=O)NC(=O)NC1c2ccccc2-c2ccccc21 [Compound 10]	> 50000 nM							
O=C(NC(=O)c1c(F)cccc1F)NC1c2ccccc2-c2ccccc21 [Compound 11]	> 50000 nM							
CSc1cccc(F)c1C(=O)NC(=O)NC1c2ccccc2-c2ccccc21 [Compound 12]	> 50000 nM							
COc1cccc(Cl)c1C(=O)NC(=O)NC1c2ccccc2-c2ccccc21 [Compound 13]	> 50000 nM							
CC(=O)Oc1cccc(O)c1C(=O)NC(=O)NC1c2ccccc2-c2ccccc21 [Compound 14, 1-(2-Acetoxy-6-hydroxybenzoyl)-3-(9H-fluoren-9-yl)-urea]	550 ± 30 nM	710 ± 340 nM	800 ± 230 nM	550 ± 30 nM	2430 ± 500 nM	770 ± 370 nM	> 16000 nM	
CC(=O)Oc1cccc(OC(C)=O)c1C(=O)NC(=O)NC1c2ccccc2-c2ccccc21 [Compound 15, 1-[2,6-Bis-(acetoxy)benzoyl]-3-(9H-fluoren-9-yl)-urea]	460 ± 50 nM	740 ± 360 nM	360 ± 40 nM	460 ± 50 nM		800 ± 130 nM	> 16000 nM	
O=C(NC(=O)c1c(O)cccc1OCCO)NC1c2ccccc2-c2ccccc21 [Compound 16]	> 20000 nM							
O=C(NC(=O)c1c(OCCO)cccc1OCCO)NC1c2ccccc2-c2ccccc21 [Compound 17]	> 20000 nM							

Structure (SMILES)	EC50 (HCV JFH1-2a replicon; [3])	EC50 [1]	EC50 (HCV Con1-1b replicon)	EC50 (HCV JFH1-2a replicon; [4])	IC50 (CypA)	EC50 (HCV H77-1a replicon)	CC50 at 48 h [2]	melting point
O=C(NC(=O)c1c(O)cccc1OC(=O)c1ccccc1)NC1c2ccccc2-c2ccccc21 [Compound 18, 1-(2-Benzoyloxy-6-hydroxybenzoyl)-3-(9H-fluoren-9-yl)-urea]		700 ± 230 nM	1030 ± 20 nM	1050 ± 10 nM	1990 ± 470 nM	600 ± 350 nM	> 16000 nM	211 to 214 °C
CCC(=O)Oc1cccc(O)c1C(=O)NC(=O)NC1c2ccccc2-c2ccccc21 [Compound 19, 1-(2-Hydroxy-6-propionyloxybenzoyl)-3-(9H-fluoren-9-yl)-urea]		470 ± 40 nM	720 ± 200 nM	940 ± 70 nM		380 ± 220 nM	> 16000 nM	206 to 216 °C
CCCC(=O)Oc1cccc(O)c1C(=O)NC(=O)NC1c2ccccc2-c2ccccc21 [Compound 20, 1-(2-Hydroxy-6-n-butyryloxybenzoyl)-3-(9H-fluoren-9-yl)-urea]		280 ± 20 nM	490 ± 20 nM	700 ± 20 nM		980 ± 30 nM	> 16000 nM	204 to 210 °C
O=C(NC(=O)c1c(O)cccc1OC(=O)C1CC1)NC1c2ccccc2-c2ccccc21 [Compound 21, 1-(2-Cyclopropyl formyloxy-6-hydroxybenzoyl)-3-(9H-fluoren-9-yl)-urea]		780 ± 350 nM	850 ± 240 nM	430 ± 80 nM		570 ± 200 nM	> 16000 nM	194 to 199 °C
CCCCC(=O)Oc1cccc(O)c1C(=O)NC(=O)NC1c2ccccc2-c2ccccc21 [Compound 22, 1-(2-Hydroxy-6-valeryloxybenzoyl)-3-(9H-fluoren-9-yl)-urea]		440 ± 30 nM	440 ± 100 nM	470 ± 20 nM		1000 ± 60 nM	> 16000 nM	193 to 199 °C
CC(C)(C)C(=O)Oc1cccc(O)c1C(=O)NC(=O)NC1c2ccccc2-c2ccccc21 [Compound 23, 1-(2-Hydroxy-6-trimethylacetoxyloxybenzoyl)-3-(9H-fluoren-9-yl)-urea]		530 ± 50 nM	830 ± 280 nM	480 ± 20 nM		670 ± 50 nM	> 16000 nM	187 to 189 °C
CCCCCC(=O)Oc1cccc(O)c1C(=O)NC(=O)NC1c2ccccc2-c2ccccc21 [Compound 24, 1-(2-Hexanoyloxy-6-hydroxybenzoyl)-3-(9H-fluoren-9-yl)-urea]		740 ± 370 nM	1000 ± 10 nM	1080 ± 50 nM		1050 ± 10 nM	> 16000 nM	200 to 222 °C
O=C(NC(=O)c1c(OC(=O)c2ccccc2)cccc1OC(=O)c1ccccc1)NC1c2ccccc2-c2ccccc21 [Compound 26, 1-[2,6-Bis-(benzoyloxy)benzoyl]-3-(9H-fluoren-9-yl)-urea]		1090 ± 30 nM	390 ± 50 nM	360 ± 30 nM		530 ± 210 nM	> 16000 nM	211 to 213 °C
CCC(=O)Oc1cccc(OC(=O)CC)c1C(=O)NC(=O)NC1c2ccccc2-c2ccccc21 [Compound 27, 1-[2,6-Bis-(propionyloxy)benzoyl]-3-(9H-fluoren-9-yl)-urea]		420 ± 80 nM	380 ± 20 nM	380 ± 30 nM		520 ± 270 nM	> 16000 nM	165 to 167 °C
CCCC(=O)Oc1cccc(OC(=O)CCC)c1C(=O)NC(=O)NC1c2ccccc2-c2ccccc21 [Compound 28, 1-[2,6-Bis-(n-butyryloxy)benzoyl]-3-(9H-fluoren-9-yl)-urea]		680 ± 470 nM	620 ± 150 nM	840 ± 320 nM		790 ± 200 nM	> 16000 nM	186 to 188 °C
O=C(NC(=O)c1c(OC(=O)C2CC2)cccc1OC(=O)C1CC1)NC1c2ccccc2-c2ccccc21 [Compound 29, 1-[2,6-Bis-(cyclopropylformyloxy)benzoyl]-3-(9H-fluoren-9-yl)-urea]		740 ± 350 nM	600 ± 190 nM	420 ± 140 nM		520 ± 140 nM	> 16000 nM	183 to 186 °C
CCCCC(=O)Oc1cccc(OC(=O)CCCC)c1C(=O)NC(=O)NC1c2ccccc2-c2ccccc21 [Compound 30, 1-[2,6-Bis-(valeryloxy)benzoyl]-3-(9H-fluoren-9-yl)-urea]		470 ± 10 nM	830 ± 260 nM	620 ± 50 nM		730 ± 110 nM	> 16000 nM	172 to 174 °C
CC(C)(C)C(=O)Oc1cccc(OC(=O)C(C)(C)C)c1C(=O)NC(=O)NC1c2ccccc2-c2ccccc21 [Compound 31, 1-[2,6-Bis-(trimethylacetoxyloxy)benzoyl]-3-(9H-fluoren-9-yl)-urea]		840 ± 210 nM	560 ± 200 nM	750 ± 290 nM		870 ± 270 nM	> 16000 nM	202 to 205 °C
CCCCCC(=O)Oc1cccc(OC(=O)CCCCC)c1C(=O)NC(=O)NC1c2ccccc2-c2ccccc21 [Compound 32, 1-[2,6-Bis-(hexanoyloxy)benzoyl]-3-(9H-fluoren-9-yl)-urea]		740 ± 310 nM	730 ± 340 nM	380 ± 50 nM		630 ± 290 nM	> 16000 nM	162 to 165 °C
CCCCCCCC(=O)Oc1cccc(OC(=O)CCCCCCC)c1C(=O)NC(=O)NC1c2ccccc2-c2ccccc21 [Compound 33, 1-[2,6-Bis-(n-Octanoyloxy)benzoyl]-3-(9H-fluoren-9-yl)-urea]		950 ± 20 nM	730 ± 200 nM	980 ± 10 nM		540 ± 150 nM	> 16000 nM	152 to 153 °C
